Key:
[1] = Metabolic stability in human liver microsomes; assay type: in vitro ADME; settings: for half-life: NADPH, 37° C., read-out: Human microsome (t1/2)
Description: (§1) The appropriate concentrations of microsomes working solutions (0.56 mg/mL) were prepared in potassium phosphate buffer. The test compounds were incubated with Human, SD Rat, CD-1 Mouse and Beagle Dog liver microsomes for 10 min at 37° C. with constant shaking. The reaction was initiated by the addition of nicotinamide adenine dinucleotide phosphate (NADPH) cofactor after a 10 min pre-incubation. At 5, 15, 30, 45, and 60 min, the samples were taken and placed into the stop solution (Cold acetonitrile containing 200 ng/mL tolbutamide and 200 ng/mL labetalol as internal standards). All sampling plates were shaken for 10 min, then centrifuged at 4000 rpm for 20 minutes at 4° C. Each supernatant of bioanalysis plate was sealed and shaken for 10 minutes prior to LC-MS analysis.

[2] = Metabolic stability in rat liver microsomes; assay type: in vitro ADME, SD Rat; settings: for half-life: SD rat liver microsomes, NADPH, 37° C., read-out: Rat microsome (t1/2)
Description: as §1

[3] = target: T1, IRAK4 (Homo sapiens (Human), UniProt Q9NWZ3); experiment: Kinase binding ability (KINOMEscan site-directed competition binding assay)
T1 sequence (Q9NWZ3 whole entry): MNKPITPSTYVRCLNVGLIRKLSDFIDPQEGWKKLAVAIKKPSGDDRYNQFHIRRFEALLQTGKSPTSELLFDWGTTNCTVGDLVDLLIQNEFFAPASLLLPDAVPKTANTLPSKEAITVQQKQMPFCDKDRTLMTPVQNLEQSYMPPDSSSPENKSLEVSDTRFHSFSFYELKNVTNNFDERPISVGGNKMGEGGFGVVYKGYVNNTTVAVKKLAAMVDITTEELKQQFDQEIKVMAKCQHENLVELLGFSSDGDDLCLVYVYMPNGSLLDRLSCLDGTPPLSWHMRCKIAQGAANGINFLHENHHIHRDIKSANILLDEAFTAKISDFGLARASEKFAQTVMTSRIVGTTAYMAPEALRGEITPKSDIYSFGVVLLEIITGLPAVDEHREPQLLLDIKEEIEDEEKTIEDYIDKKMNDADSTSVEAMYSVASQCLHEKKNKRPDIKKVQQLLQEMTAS
Description: The Equilibrium dissociation constant reflected the test compound's kinase binding (Kd). The KINOMEscan, a site-directed competition binding assay, was used to measure interactions between test compounds and specific kinases. The kinase-tagged T7 phage strains were derived from the BL21 strain's E. coli host. T7 phage was used to infect E. coli, which was then incubated until lysis occurred. The remaining kinases were produced in HEK-293 cells and tagged with DNA. To create affinity resins for kinase, streptavidin-coated magnetic beads were treated with biotinylated small molecule ligands. The assay consists of three components: a DNA-tagged kinase, an immobilized ligand, and the test compound. An immobilized ligand could compete with the compound binding the kinase active site. The affinity beads were washed with wash buffer and re-suspended in elution buffer following reactions in a polypropylene 384-well plate. qPCR of the kinase-DNA tag was used to assess the test compound's ability to bind with the selected kinase. The assay was carried out in accordance with the manufacturer's instructions (Eurofins DiscoverX Corporation).
Binding constants (Kd) were calculated with a standard dose-response curve using the Hill equation: […]

[4] = Metabolic stability in mouse liver microsomes; assay type: in vitro ADME, CD-1 Mouse; settings: for half-life: CD-1 mouse liver microsomes, NADPH, 37° C., read-out: Mouse microsome (t1/2)
Description: as §1

[5] = Metabolic stability in dog liver microsomes; assay type: in vitro ADME, Beagle Dog; settings: for half-life: Beagle dog liver microsomes, NADPH, 37° C., read-out: Dog microsome (t1/2)
Description: as §1

[6] = target: T1, IRAK4; experiment: Screening the compounds against IRAK4 with ATP (Caliper, FAM-labeled peptide); assay type: biochemical; settings: for IC50: read-out: IC50 (nM) (10 μM ATP), IRAK4 kinase, 10 μM ATP; for activity, times better than that of the positive control compound CA4948: IRAK4 kinase inhibition relative to CA4948
Description: Prepare Ix kinase base buffer and stop buffer for testing kinases: (1) base buffer: 50 mM HEPES (pH 7.5), 0.0015% Brij-35; (2) stop buffer: 100 mM HEPES (pH 7.5), 0.015% Brij-35, 0.2% Coating Reagent #3, 50 mM EDTA. Then prepare compounds for testing: Dilute the compound to 50× of the final desired highest inhibitor concentration in reaction by 100% DMSO. Transfer 100 μL of this compound dilution to a well in a 96-well plate (source plate).
Serially dilute the compounds by 3-fold for a total of 10 points. Transfer 10 μL of the compound from the source plate to a new 96-well plate (intermediate plate) and add 90 μL of Ix kinase buffer. Shake the mixture on the intermediate plate for 10 min. Transfer 5 μL of each well from the 96-well intermediate plate to a 384-well plate in duplicates. Add 10 μL of 2.5× enzyme solution to each well of the 384-well assay plate and incubate at room temperature for 10 min. Add 10 μL, of 2.5×FAM-labeled peptide and ATP solution and incubate at 28° C. for a period of time. Finally stop the reaction by adding 30 μL of stop buffer and collect data on Caliper to obtain the IC50.

Cn1cc(-c2cccc(NC(=O)c3cc4oc(N5CCOCC5)nc4nc3N3CC[C@@H](O)C3)n2)cn1 [Compound A1, (R)-5-(3-hydroxypyrrolidin-1-yl)-N-(6-(1-methyl-1H-pyrazol-4-yl)pyridin-2-yl)-2-morpholinooxazolo[4,5-b]pyridine-6-carboxamide]
metabolic stability in liver microsomes of human (in words) [1]: good metabolic stability
half-life [1]: > 2.42 h
half-life [2]: > 2.42 h
metabolic stability in liver microsomes of rat (in words) [2]: good metabolic stability
binding affinities to IRAK4 (in words) [3]: high binding affinities
Kd ([3]; Kd between IRAK4 and compound): 29 nM
half-life [4]: > 2.42 h
metabolic stability in liver microsomes of mouse (in words) [4]: good metabolic stability
half-life [5]: > 2.42 h
metabolic stability in liver microsomes of dog (in words) [5]: good metabolic stability
IC50 [6]: 405 nM

COC1CCN(c2nc3nc(N4CCOCC4)oc3cc2C(=O)Nc2cccc(-c3cnn(C)c3)n2)CC1 [Compound A24, 5-(4-Methoxypiperidin-1-yl)-N-(6-(1-methyl-1H-pyrazol-4-yl)pyridin-2-yl)-2-morpholinooxazolo[4,5-b]pyridine-6-carboxamide]
metabolic stability in liver microsomes of human (in words) [1]: good metabolism
half-life [1]: 1.95 h
half-life [2]: 1.27 h
metabolic stability in liver microsomes of rat (in words) [2]: moderate metabolic stability
half-life [4]: 1.48 h
metabolic stability in liver microsomes of mouse (in words) [4]: good metabolism
half-life [5]: 1.13 h
metabolic stability in liver microsomes of dog (in words) [5]: moderate metabolic stability
activity, times better than that of the positive control compound CA4948 [6]: more than 25 times
IC50 [6]: 4.1 nM

CN1CCC(Oc2nc3c(cc2C(=O)Nc2cccc(-c4cnn(C)c4)n2)CC(C)(C)O3)C1 (stereo not drawn) [Compound B21, 2,2-Dimethyl-N-(6-(1-methyl-1H-pyrazol-4-yl)pyridin-2-yl)-6-((1-methylpyrrolidin-3-yl)oxy)-2,3-dihydrofuro[2,3-b]pyridine-5-carboxamide]
IC50 [6]: 75 nM

Cn1cc(-c2cccc(NC(=O)c3cc4c(nc3OC3CCNC3)OC(C)(C)C4)n2)cn1 (stereo not drawn) [Compound B22, 2,2-Dimethyl-N-(6-(1-methyl-1H-pyrazol-4-yl)pyridin-2-yl)-6-(pyrrolidin-3-yloxy)-2,3-dihydrofuro[2,3-b]pyridine-5-carboxamide]
IC50 [6]: 354 nM

Cn1cc(-c2cccc(NC(=O)c3cc4c(nc3OC3CCOCC3)OC(C)(C)C4)n2)cn1 [Compound B23, 2,2-Dimethyl-N-(6-(1-methyl-1H-pyrazol-4-yl)pyridin-2-yl)-6-((tetrahydro-2H-pyran-4-yl)oxy)-2,3-dihydrofuro[2,3-b]pyridine-5-carboxamide]
IC50 [6]: 11 nM

Cn1cc(-c2cccc(NC(=O)c3cc4c(nc3OCC3CC3)OC(C)(C)C4)n2)cn1 [Compound B24, 6-(Cyclopropylmethoxy)-2,2-dimethyl-N-(6-(1-methyl-1H-pyrazol-4-yl)pyridin-2-yl)-2,3-dihydrofuro[2,3-b]pyridine-5-carboxamide]
IC50 [6]: 11 nM

CC(Oc1nc2c(cc1C(=O)Nc1cccc(-c3cnn(C)c3)n1)CC(C)(C)O2)C1CC1 (stereo not drawn) [Compound B26, 6-(1-Cyclopropylethoxy)-2,2-dimethyl-N-(6-(1-methyl-1H-pyrazol-4-yl)pyridin-2-yl)-2,3-dihydrofuro[2,3-b]pyridine-5-carboxamide]
IC50 [6]: 13 nM

Cn1cc(-c2cccc(NC(=O)c3cc4c(nc3OC3CNC(=O)OC3)OC(C)(C)C4)n2)cn1 (stereo not drawn) [Compound B28, 2,2-Dimethyl-N-(6-(1-methyl-1H-pyrazol-4-yl)pyridin-2-yl)-6-((2-oxo-1,3-oxazinan-5-yl)oxy)-2,3-dihydrofuro[2,3-b]pyridine-5-carboxamide]
IC50 [6]: 248 nM

Cn1cc(-c2cccc(NC(=O)c3cc4c(nc3OC3CC3)OC(C)(C)C4)n2)cn1 [Compound B29, 6-Cyclopropoxy-2,2-dimethyl-N-(6-(1-methyl-1H-pyrazol-4-yl)pyridin-2-yl)-2,3-dihydrofuro[2,3-b]pyridine-5-carboxamide]
activity, times better than that of the positive control compound CA4948 [6]: more than 10 times
IC50 [6]: 6.2 nM

Cn1cc(-c2cccc(NC(=O)c3cc4c(nc3OC3CNC3)OC(C)(C)C4)n2)cn1 [Compound B30, 6-(Azetidin-3-yloxy)-2,2-dimethyl-N-(6-(1-methyl-1H-pyrazol-4-yl)pyridin-2-yl)-2,3-dihydrofuro[2,3-b]pyridine-5-carboxamide]
IC50 [6]: 170 nM

CN1CC(Oc2nc3c(cc2C(=O)Nc2cccc(-c4cnn(C)c4)n2)CC(C)(C)O3)C1 [Compound B31, 2,2-Dimethyl-N-(6-(1-methyl-1H-pyrazol-4-yl)pyridin-2-yl)-6-((1-methylazetidin-3-yl)oxy)-2,3-dihydrofuro[2,3-b]pyridine-5-carboxamide]
IC50 [6]: 176 nM

Cn1cc(-c2cccc(NC(=O)c3cc4c(nc3O[C@@H]3CCOC3)OC(C)(C)C4)n2)cn1 [Compound B33, (R)-2,2-Dimethyl-N-(6-(1-methyl-1H-pyrazol-4-yl)pyridin-2-yl)-6-((tetrahydrofuran-3-yl)oxy)-2,3-dihydrofuro[2,3-b]pyridine-5-carboxamide]
activity, times better than that of the positive control compound CA4948 [6]: more than 10 times
IC50 [6]: 8.9 nM

Cn1cc(-c2cccc(NC(=O)c3cc4c(nc3O)OC(C)(C)C4)n2)cn1 [Compound B34]
IC50 [6]: 243 nM

Cn1cc(-c2cccc(NC(=O)c3cc4c(nc3OC3CC(C)(O)C3)OC(C)(C)C4)n2)cn1 (stereo not drawn) [Compound B35, 6-(3-Hydroxy-3-methylcyclobutoxy)-2,2-dimethyl-N-(6-(1-methyl-1H-pyrazol-4-yl)pyridin-2-yl)-2,3-dihydrofuro[2,3-b]pyridine-5-carboxamide]
activity, times better than that of the positive control compound CA4948 [6]: more than 10 times
IC50 [6]: 6.8 nM

From patent US20250074919A1, “Heteroaryl compounds as inhibitors of irak4, compositions and applications thereof” (Accro Bioscience (HK) Limited, priority 2021, published 2025)
